# Patent US5789188A, “Tetracycline-efflux pump inhibitor screening methods” (priority 1996, dated 1998)
# Read-outs that look alike come from different tables or passages of the source.
# Experiments:
# strain KB3ind [1] = assay: Tetracycline liquid assay (β-galactosidase, Miller Units); type: cell-based, E. coli; details: Escherichia coli
# Description: (§1) Alternatively, a liquid assay is also used. Cells are grown in LB (pH 7.5), and tetracycline-containing samples are added to aliquots when the density of the culture is 0.1 OD units. After 3-4 generations of the cells, each aliquot is measured for β-galactosidase activity as described (10, 12) and Miller Units (12) are determined. […] For both the plate and liquid assays, this strain is more sensitive than a previously reported screening organism (11).
# strain KB3ind [2] = type: cell-based, E. coli; details: strain KB3ind; plate assay (plate or liquid assay)
# Description: (§2) To detect tetracyclines, a plate assay is developed that is similar to one described previously (11). Cells are grown in Luria Broth (adjusted with NaOH to pH 7.5) with 25 μg/ml of kanamycin to a cell density of 0.5 absorbance units (600 nm). A 25 ml sample of the culture is harvested by centrifugation and resuspended in 1 ml of broth. The cells are mixed with 25 ml of soft agar (1%, wt/vol) and poured onto 100 ml of LB (pH 7.5)+ kanamycin, within a 22 cm^2 NUNC plate (Corning). Samples are applied by spotting from 2 to 15 μl, or by applying a disc impregnated with a compound, and the plate is incubated for 3-4 hours at 37° C. The plates are overlaid with a solution containing 13.5 mg of 6-bromo-2-naphthyl-β-D-galactopyranoside side and 86.5 mg of fast blue RR (Sigma) dissolved in 2 ml of dimethylsulfoxide, to which 25 ml of soft agar is added. β-Galactosidase is detected by the presence of a purple spot.
# [3] = tested on: tetracycline efflux pump (strain KB4 or KB5); assay: Inhibition Assay, plate assay (agar with 5 ng/ml of tetracycline); type: cell-based, E. coli; details: strain KB4 or KB5, spotted on plate
# Description: as §2
# Two assays are developed for detecting inhibitors of the tetA gene product (using strain KB5), or the tetK gene product (using strain KB4). In the Inhibition Assay, cells of strain KB4 or KB5 are treated as described in the tetracycline screen above, except that the agar medium contains 5 ng/ml of tetracycline. Alternatively a Liquid Assay is also developed. Cells are first grown in LB (pH 7.5). Then cells are shifted to medium containing 5 ng/ml of tetracycline, and tetracycline-containing samples are added to aliquots. Cells are then incubated and assayed as described for the Tetracycline Assay. […] However, the intracellular concentration is reduced in tetracycline resistant strains due to the action of the efflux pump, so more tetracycline would be required in the medium to accumulate sufficient tetracycline inside the cell to induce. The Inhibition Assay is designed to detect compounds that cause β-galactosidase induction in the presence of sub-inducing levels of tetracycline for a resistant strain.
# strain KB4 [4] = assay: Induction in liquid culture, strain KB4; type: cell-based, E. coli; details: Escherichia coli, read-out: concentration for full induction of β-galactosidase
# Description: (§3) Cells are added to tetracycline to the final concentration indicated as described in FIG. 7. The sensitive strain is the tetracycline screening organism KB3ind, which induces fully when grown in the presence of 5-10 ng/ml of tetracycline. In contrast, the strain containing the Tn10 element, conferring strong tetracycline resistance, induces fully when the concentration of tetracycline is above 1 μg/ml.
# as §1
# [5] = tested on: strain MC1061 with plasmid pGG58; assay: microbe, parasite or virus in culture; details: Escherichia coli, read-out: tetracycline resistance
# strain KB5 = assay: MIC of strain KB5; type: cell-based, E. coli; details: Escherichia coli
# strain KB4 [6] = assay: microbe, parasite or virus in culture; details: Escherichia coli, read-out: tetracycline resistance conferred
# [7] = tested on: Tn10 derivative of KB3ind; assay: microbe, parasite or virus in culture; details: Escherichia coli, read-out: tetracycline resistance
# [8] = tested on: E. coli MC1061 containing pCBSal; assay: MIC (LD 90) of maximally induced tetA (plasmid pCBSal); type: cell-based; details: Escherichia coli, read-out: MIC (LD 90) of Maximally Induced tetA, pCBSal
# Description: (§4) E. coli MC1061 containing either pGG57, pCBSal or pGG75 were used to determine the MIC (LD 90) for tetracycline as well as six tetracycline analogs. […] MIC studies were performed in the presence of 0.01 mM IPTG for E. coli MC1061 containing pGG57. […] All of these MIC studies were done in duplicate.
# [9] = tested on: E. coli MC1061 containing pGG75; assay: MIC (LD 90) of maximally induced tetC (plasmid pGG75); type: cell-based; details: Escherichia coli, read-out: MIC (LD 90) of Maximally Induced tetC, pGG75
# Description: as §4
# [10] = tested on: E. coli MC1061 containing pGG57; assay: microbe, parasite or virus in culture; type: cell-based; details: Escherichia coli
# Description: as §4
# [11] = tested on: strains containing pCB258; assay: microbe, parasite or virus in culture; details: Escherichia coli
# [12] = tested on: Tn10 derivative of strain KB3ind; assay: Induction in liquid culture, Tn10 strain; type: cell-based, E. coli; details: Escherichia coli, read-out: concentration for full induction of β-galactosidase, Tn10 strain, liquid culture
# Description: as §3, §1
structure (smiles),measurement,setting,value
CN(C)C1C(=O)C(C(N)=O)=C(O)C2(O)C(=O)C3=C(O)c4c(O)cccc4C(C)(O)C3CC12 (centres unmarked) [Tetracycline],EC (full induction),"strain KB3ind [1]; liquid culture, read-out: concentration for full induction of β-galactosidase",0.005 to 0.01 µg/mL
same,minimal effective concentration,strain KB3ind [1]; read-out: lowest concentration detected in liquid assay,0.0001 µg/mL
same,response in the Tetracycline Assay (β-galactosidase induction),strain KB3ind [2],capable of detecting
same,"Tetracycline Detection, amount detected in Inhibition plate assay",[3],≥ 1 ng
same,"Tetracycline Detection, amount detected in Inhibition plate assay",[3]; listed as tetracycline,1 ng
same,EC (full induction),strain KB4 [4],0.03 µg/mL
same,MIC,[5],15 µg/mL
same,MIC,strain KB5,~10 µg/mL
same,MIC,strain KB4 [6],< 10 µg/mL
same,MIC,[7],> 100 µg/mL
same,MIC,[8],150 µg/mL
same,MIC,[9],100 µg/mL
same,MIC,"[10]; read-out: MIC (LD 90) of Maximally Induced tetK, pGG57",125 µg/mL
same,MIC,[10]; read-out: tetracycline resistance conferred,25 µg/mL
same,MIC,[11]; PCB258,50 µg/mL
same,MIC,"[11]; PCB258, read-out: tetracycline resistance conferred",40 µg/mL
same,EC (full induction),[12],> 1 µg/mL
